# Target: T1, XenA-his (Pseudomonas putida, UniProt Q9R9V9)
# T1 construct: about 39 kDa, described as monomeric flavoprotein
# T1 sequence (Q9R9V9 1-363): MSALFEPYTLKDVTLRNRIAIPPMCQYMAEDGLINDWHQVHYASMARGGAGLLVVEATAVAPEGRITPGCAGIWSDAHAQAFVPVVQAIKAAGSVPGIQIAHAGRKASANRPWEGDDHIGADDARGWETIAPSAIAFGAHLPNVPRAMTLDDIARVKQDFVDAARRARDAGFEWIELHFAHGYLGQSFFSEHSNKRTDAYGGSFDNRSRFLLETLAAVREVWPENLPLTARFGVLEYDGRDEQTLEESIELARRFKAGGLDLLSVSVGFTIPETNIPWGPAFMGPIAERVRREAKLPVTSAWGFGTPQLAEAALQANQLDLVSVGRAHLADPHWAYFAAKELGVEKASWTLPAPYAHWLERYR
# Assay: reduction of nitro groups tested with purified enzyme
# Assay type: biochemical
compound,measurement,value
O=[N+]([O-])OCC(CO[N+](=O)[O-])O[N+](=O)[O-] [nitro-glycerin],reduction of nitro groups tested with purified enzyme,it was able to reduce the NO2 groups present in the substrate

# Source: paper PMC7568253, “Evaluation of two xenobiotic reductases from Pseudomonas putida for their suitability for magnetic nanoparticle‐directed enzyme prodrug therapy as a novel approach to cancer treatment” (MicrobiologyOpen, 2020)
